From US4371544A, “Pharmaceutical composition containing 1,1,3,5-substituted biuret compound” (Taiho Pharmaceutical Company Limited, priority 1979, dated 1983)

Columns and labels:
ddy strain of male mice [1] = test: Acute toxicity (oral, mice, 7 days observation); type: in vivo
Protocol: (§1) Next, several tests for determining the pharmacological properties, in that acute toxicity, anti-pyretic activity, analgesic activity and anti-inflammatory activity of the present 1,1,3,5-substituted biuret compounds of the formula (1) were conducted and the test results are shown in Table (2). In the tests, each compounds to be tested was used as a suspension in 0.25% carboxymethylcellulose solution. Methods for testing are explained as follows:
The ddy strain of male mice (body weight, 20-25 g) were used as test animals. The mice were fasted overnight and the compound to be tested was administered orally. […] The lethal dose (mg/kg, body weight) of the test compound was determined in connection with the death number of mice/the number of mice tested. In Table 2, the values indicated with Δ marks are 50% lethal dose, LD50 (mg/kg, body weight).

ddy strain of male mice [2] = test: Analgesic activity, acetic acid-induced stretching method; type: in vivo, mouse (ddy); conditions: for inhibition in vivo at 100 mg/kg: read-out: Analgesic activity, acetic acid-induced stretching method, inhibitory ratio
Protocol: as §1
According to the method reported by Koster et al., [Fed. Proc., Vol. 18, pp. 412 (1959)], the ddy strain of male mice (body weight, 20-25 g) were used as test animals. The mice were fasted overnight, 100 mg/kg body weight of the test compound was administered orally, then 1 hour after the administration, 0.2 ml of 0.7% acetic acid solution was injected intraperitoneally. The acetic acid-induced stretching symptom of mouse was observed. Analgesic activity of the test compound was calculated as the inhibitory ratio (%). In Table 2, the values in parentheses show the data obtained from the test by using the dosage other than 100 mg/kg body weight. Further, the values indicated with Δ marks show 50% effective dose, ED50 (mg/kg body weight).

ddy strain of male mice [3] = test: Analgesic activity, Haffner method (morphine threshold dose, clamp); type: in vivo, mouse (ddy); conditions: for ED50: oral, Δ mark, range in parentheses
Protocol: as §1
According to the modified method reported by Fujimura et. al., [Bulletin of the Institute for Chemical Research, Kyoto University, No. 25, pp. 36 (1951)], the ddy strain of male mice (body weight, 20-25 g) were used as test animals. The mice were fasted overnight, 100 mg/kg body weight of the test compound was administered orally, then 45 minutes after the administration, the threshold amount (1.5-2.5 mg/kg body weight) of morphine hydrochloride was injected subcutaneously. Then 1-hour pain reaction of the mouse caused by a clamp was observed. Analgesic activity of the test compound was calculated as the inhibitory ratio (%). In Table 2, the values in parentheses show the data obtained from the test by using the dosage other than 100 mg/kg body weight. Further, the values indicated with Δ marks show 50% effective dose, ED50 (mg/kg body weight).

[4] = system: Wistar strain of male rats; test: Anti-pyretic activity (dry-yeast-induced fever); type: in vivo, rat (Wistar); conditions: oral (dose not given), up to 4 hours after administration
Protocol: as §1
According to the method reported by Tanabe [Folia Pharmacologia Japonica, Vol. 73, pp. 803 (1977)], the Wistar strain of male rats (150-180 g, body weight) were used as test animals. The rats were fasted overnight, and 1 ml/100 g (body weight) of 10% dry-yeast suspension were subcutaneously injected on the back of the rats. Five hours after the injection, the test compound was administered orally, then the body temperature of the rat was measured at time sequences. Anti-pyretic activity of the test compound was determined as the FI (febril index) by integrating pyrogenetic curve up to 4 hours after the administration of the test compound with time, and indicated as inhibitory ratio (%) shown by the following formula, [formula]

[5] = 100 mg/kg oral, 1 hour before acetic acid
[6] = 100 mg/kg oral, 45 minutes before morphine hydrochloride

Structure (SMILES)	Acute toxicity: death number of mice/number of mice tested (ddy strain of male mice [1]; 2000 mg/kg oral)	Acute toxicity: death number of mice/number of mice tested (ddy strain of male mice [1]; 1000 mg/kg oral)	Analgesic activity, acetic acid-induced stretching method, inhibitory ratio (ddy strain of male mice [2]; [5]) [%]	Analgesic activity, Haffner method, inhibitory ratio (ddy strain of male mice [3]; [6]) [%]	Anti-pyretic activity, inhibitory ratio (febril index) [4] [%]	further results
CN(C)C(=O)NC(=O)Nc1ccccc1F [Compound No. 2, 1,1-Dimethyl-5-(2-fluorophenyl)biuret]	0/4					inhibition in vivo at 100 mg/kg (ddy strain of male mice [2]; Mus musculus, 100 mg/kg oral, 1 hour before acetic acid): 40%
CN(C)C(=O)NC(=O)Nc1ccc(Cl)cc1 [Compound No. 3]	0/4					inhibition in vivo at 100 mg/kg (ddy strain of male mice [2]; Mus musculus, po): 50%
CN(C)C(=O)N(C)C(=O)Nc1ccccc1F [Compound No. 7, 1,1,3-Trimethyl-5-(2-fluorophenyl)biuret]	4/4	1/4	62.5	75	76	
Cc1ccc(NC(=O)N(C)C(=O)N(C)C)cc1C [Compound No. 30, 1,1,3-Trimethyl-5-(3,4-dimethylphenyl)biuret]	1/4				31	ED50 (ddy strain of male mice [3]; Mus musculus): 86 mg/kg
CCN(C)C(=O)N(C)C(=O)Nc1ccccc1 [Compound No. 45, 1-ethyl-1,3-dimethyl-5-phenylbiuret]					49	Analgesic activity, acetic acid-induced stretching method, inhibitory ratio (ddy strain of male mice [2]; 80 mg/kg oral): 50%; ED50 (ddy strain of male mice [3]; Mus musculus): 100 mg/kg
CN(C)C(=O)N(C)C(=O)Nc1ccc(F)cc1 [compound 8, 1,1,3-Trimethyl-5-(4-fluorophenyl)biuret]			87.5	62.5	61	
CN(C)C(=O)N(C)C(=O)Nc1ccccc1Cl [compound 10, 1,1,3-Trimethyl-5-(2-chlorophenyl)biuret]	0/4			37.5	66	ED50 (ddy strain of male mice [2]; Mus musculus, oral, Δ mark, range in parentheses): 135 mg/kg
CN(C)C(=O)N(C)C(=O)Nc1ccc(Cl)cc1Cl [compound 13, 1,1,3-Trimethyl-5-(2,4-dichlorophenyl)biuret]	3/4	0/4	50	75	42	
CN(C)C(=O)N(C)C(=O)Nc1ccc(Cl)c(Cl)c1 [compound 14, 1,1,3-Trimethyl-5-(3,4-dichlorophenyl)biuret]	3/4	1/4	50	62.5	43	
CN(C)C(=O)N(C)C(=O)Nc1c(Cl)cccc1Cl [compound 15, 1,1,3-Trimethyl-5-(2,6-dichlorophenyl)biuret]			50	50	29	
CN(C)C(=O)N(C)C(=O)Nc1ccc(N(C)C)cc1 [compound 19, 1,1,3-Trimethyl-5-(4-dimethylaminophenyl)biuret]	0/4		62.5	50	26	
CN(C)C(=O)N(C)C(=O)Nc1ccc(O)cc1 [compound 21, 1,1,3-Trimethyl-5-(4-hydroxyphenyl)biuret]	3/4	0/4				inhibition in vivo at 100 mg/kg (ddy strain of male mice [2]; Mus musculus, po): 37.5%; inhibition in vivo at 100 mg/kg (ddy strain of male mice [3]; Mus musculus, 100 mg/kg oral, 45 minutes before morphine hydrochloride, read-out: Analgesic activity, Haffner method, inhibitory ratio): 12.5%
